The values below come from US20100015249A1, “Antitumor agent containing 6'-amidino-2'-naphthyl 4-guanidinobenzoate or salt thereof” (priority 2005, published 2010).

The structures appear in SMILES notation.

One assay relates to FADD. Description: Western blot of FADD phosphorylation. The format is cell-based, human. As to the method:
The present inventors examined whether apoptosis signaling cascade is triggered with the elevation of TNFRI expression induced by FUT treatment, using caspase 8 as an indicator. Cytoplasmic fraction was prepared from the human pancreas cancer cell line MDAPanc-28 treated with various concentrations of FUT for 24 hours. Western blot was performed and subjected to the detection with anti-caspase 8 antibody (Santa Cruz Biotechnology) (FIG. 6-a). Western blot was performed to examine temporal changes in the expression of caspase 8, p-FADD, Bid and jBid under a constant concentration of FUT (80 μg/ml) at short intervals from 0 to 24 hours of treatment (FIGS. 6-b, 6-c and 6-d). Anti-FADD antibody was obtained from Santa Cruz Biotechnology and anti-Bid antibody was obtained from BD Pharmingen.
After the following treatment on the human pancreas cancer cell line MDAPanc-28, plasmatic compartment was prepared and Western blot was performed to examine the expression of phosphorylated FADD, caspase 8, NF-κB and IκBα. […] The same was true for IκBα expression (FIG. 7-c).

For another assay, the system named is NF-κB. Description: Gel shift assay of gemcitabine-induced NF-κB activation. The note with it: MDAPanc-28, pretreatment 3 hours then gemcitabine 3 hours. It is filed as cell-based, human. On the procedure: At the same time, the present inventors also made a comparison with the other NF-κB inhibitors PS1145 and PS341. […] Subsequently, a gel shift assay was performed to examine the effect on NF-κB activation.
For orientation: In EMSA bound probe runs differently from free probe, usually more slowly.

For `N=C(N)c1ccc2cc(OC(=O)c3ccc(N=C(N)N)cc3)ccc2c1` [FUT, 6-amidino-2-naphthyl p-guanidinobenzoate dimethanesulfonate], the “FADD phosphorylation with TNF-α stimulation” value with FADD (MDAPanc-28, FUT 80 μg/ml pretreatment then TNF-α 5 ng/ml 24 hours, compared to FUT alone) is recorded as “enhanced FADD phosphorylation”. Besides, the FADD phosphorylation entry in the assay with FADD (MDAPanc-28, FUT 80 μg/ml, 0 to 24 hours) was “promoted FADD phosphorylation overtime”. Further, in the assay with NF-κB, the “effect on gemcitabine-induced activation of NF-κB” value was “had an inhibitory effect on gemcitabine-induced activation of NF-κB”; the “inhibitory effect on gemcitabine-induced NF-κB activation compared among FUT, PS1145 and PS341” value is reported as “most significant”.
